Laboratory results reported in the NIST ThermoML archive (doi:10.1021/je700621d).
± gives the expanded uncertainty stated by the source.

Tests used:
[1] = for mass density: Liquid, Vibrating tube method; for surface tension liquid-gas: Pendant drop shape
[2] = xn = mol fraction of the nth substance listed; settings: 298 K; for surface tension liquid-gas: Pendant drop shape; for mass density: 101 kPa, Liquid, Vibrating tube method

CCn1cc[n+](C)c1.O=S(=O)([N-]S(=O)(=O)C(F)(F)F)C(F)(F)F
[1], 101.33 kPa
Settings | mass density [kg/m3]
278.15 K | 1539.1 ± 17
288.15 K | 1528.9 ± 16
298.15 K | 1518.7 ± 16
308.15 K | 1508.7 ± 16
318.15 K | 1498.6 ± 16
328.15 K | 1488.7 ± 16

[1]
Settings | surface tension liquid-gas [mN/m]
278.75 K | 37.31 ± 1
288.15 K | 36.58 ± 0.99
298.15 K | 35.71 ± 0.97
308.15 K | 35.17 ± 0.96
318.15 K | 34.68 ± 0.94
328.15 K | 34.25 ± 0.93

CCCO [propan-1-ol]
Settings | surface tension liquid-gas [mN/m]
[1], 298 K | 23.34 ± 0.26

Settings | mass density [kg/m3]
[1], 298 K, 101.3 kPa | 799 ± 0.2

CCCC[n+]1ccn(C)c1.O=S(=O)([N-]S(=O)(=O)C(F)(F)F)C(F)(F)F + CCCO
[2]
Settings | mass density [kg/m3] | surface tension liquid-gas [mN/m]
x1 = 0.035 | 878.2 ± 0.1 | 23.6 ± 0.26
x1 = 0.131 | 1036.2 ± 0.3 | 24.16 ± 0.28
x1 = 0.202 | 1116.5 ± 0.5 | 24.73 ± 0.3
x1 = 0.296 | 1194.1 ± 1 | 25.77 ± 0.34
x1 = 0.373 | 1243.5 ± 1.7 | 26.47 ± 0.38
x1 = 0.517 | 1311.8 ± 3.4 | 28.6 ± 0.48
x1 = 0.664 | 1361.9 ± 5.8 | 29.89 ± 0.59
x1 = 0.685 | 1368 ± 6.2 | 30.54 ± 0.61
x1 = 0.884 | 1422 ± 11 | 32.49 ± 0.79
x1 = 1 | 1436.4 ± 14 | 32.8 ± 0.88

CCCCO [butan-1-ol] + CCCC[n+]1ccn(C)c1.O=S(=O)([N-]S(=O)(=O)C(F)(F)F)C(F)(F)F
[2], x2 = 0
Settings | mass density [kg/m3] | surface tension liquid-gas [mN/m]
– | 805.3 ± 0.2 | 23.96 ± 0.26

CCCC[n+]1ccn(C)c1.O=S(=O)([N-]S(=O)(=O)C(F)(F)F)C(F)(F)F
[1], 101.33 kPa
Settings | mass density [kg/m3]
278.15 K | 1456.1 ± 15
288.15 K | 1446.2 ± 15
298 K | 1436.4 ± 15
298.15 K | 1436.6 ± 15
308.15 K | 1427 ± 14
318.15 K | 1417.4 ± 14
328.15 K | 1407.9 ± 14

[1]
Settings | surface tension liquid-gas [mN/m]
278.75 K | 33.8 ± 0.92
288.15 K | 33.37 ± 0.91
298 K | 32.8 ± 0.88
298.15 K | 32.8 ± 0.9
308.15 K | 32.32 ± 0.88
318.15 K | 31.89 ± 0.87
328.15 K | 31.28 ± 0.86

CCCCCCCCOS(=O)(=O)[O-].CCCCn1cc[n+](C)c1 [1-butyl-3-methylimidazolium octyl sulfate]
[1], 101.33 kPa
Settings | mass density [kg/m3]
278.15 K | 1077.3 ± 8.1
288.15 K | 1070.4 ± 8
298.15 K | 1063.8 ± 7.9
308.15 K | 1057.1 ± 7.8
318.15 K | 1050.8 ± 7.7
328.15 K | 1044.3 ± 7.6

[1]
Settings | surface tension liquid-gas [mN/m]
278.75 K | 28.08 ± 0.78
288.15 K | 27.29 ± 0.76
298.15 K | 26.71 ± 0.74
308.15 K | 26.27 ± 0.73
318.15 K | 25.72 ± 0.72
328.15 K | 24.99 ± 0.7
